Assay results from patent publication US9187464B2, “TRPV4 antagonists” (GlaxoSmithKline Intellectual Property (No. 2) Limited, priority 2011, dated 2015).

Target: T1, human TRPV4 (Homo sapiens, UniProt Q9HBA0)
T1 construct: expressed in transfected cells; host or cells: HEK-293-MSR-II cells transduced with 1% BacMam virus
Test: Ligand-gated assay (Fluo4 calcium, FLIPR; inhibition of agonist-induced activation)
Format: cell-based
Conditions: HEK-293-MSR-II cells transduced with BacMam human TRPV4; agonist at EC80
Procedure: TRP channel activation/opening results in an influx of divalent and monovalent cations including calcium. The resulting changes in intracellular calcium were monitored using a calcium selective fluorescent dye Fluo4 (MDS Analytical Technologies). Dye loaded cells were initially exposed to test compound to verify a lack of agonist activity. Cells were subsequently activated by addition of an agonist and inhibition of the agonist-induced activation was recorded. Human embryonic kidney 293 cells stably expressing the macrophage scavenger receptor class II (HEK-293-MSR-II) and transduced with 1% BacMam (J. P. Condreay, S. M. Witherspoon, W. C. Clay and T. A. Kost, Proc Natl Acad Sci 96 (1999), pp. 127-132) virus expressing the human TRPV4 gene were plated at 15000 cells/well in a volume of 50 μL in a 384 well poly-D lysine coated plate. Cells were incubated for 24 hours at 37 degrees and 5% CO2. Media was then aspirated using a Tecan Plate-washer and replaced with 20 μL of dye loading buffer: HBSS, 500 uM Brilliant Black (MDS Analytical Technologies), 2 uM Fluo-4. Dye loaded plates were then incubated in the dark at room temperature for 1-1.5 hours. 10 μL of test compound diluted in HBSS (HBSS with 1.5 mM Calcium Chloride, 1.5 mM Magnesium Chloride and 10 mM HEPES. pH 7.4), +0.01% Chaps was added to the plate, incubated for 10 min at room temperature in the dark and then 10 μL of agonist was added at a final concentration equal to the agonist EC80. Calcium release was measured using the FLIPRtetra (MDS Analytical Technologies) or FLIPR384 (MDS Analytical Technologies).
IC50 between 0.1-10 nM (+++), >10-50 nM (++), >50-500 nM (+).

T1 sequence (Q9HBA0 whole entry): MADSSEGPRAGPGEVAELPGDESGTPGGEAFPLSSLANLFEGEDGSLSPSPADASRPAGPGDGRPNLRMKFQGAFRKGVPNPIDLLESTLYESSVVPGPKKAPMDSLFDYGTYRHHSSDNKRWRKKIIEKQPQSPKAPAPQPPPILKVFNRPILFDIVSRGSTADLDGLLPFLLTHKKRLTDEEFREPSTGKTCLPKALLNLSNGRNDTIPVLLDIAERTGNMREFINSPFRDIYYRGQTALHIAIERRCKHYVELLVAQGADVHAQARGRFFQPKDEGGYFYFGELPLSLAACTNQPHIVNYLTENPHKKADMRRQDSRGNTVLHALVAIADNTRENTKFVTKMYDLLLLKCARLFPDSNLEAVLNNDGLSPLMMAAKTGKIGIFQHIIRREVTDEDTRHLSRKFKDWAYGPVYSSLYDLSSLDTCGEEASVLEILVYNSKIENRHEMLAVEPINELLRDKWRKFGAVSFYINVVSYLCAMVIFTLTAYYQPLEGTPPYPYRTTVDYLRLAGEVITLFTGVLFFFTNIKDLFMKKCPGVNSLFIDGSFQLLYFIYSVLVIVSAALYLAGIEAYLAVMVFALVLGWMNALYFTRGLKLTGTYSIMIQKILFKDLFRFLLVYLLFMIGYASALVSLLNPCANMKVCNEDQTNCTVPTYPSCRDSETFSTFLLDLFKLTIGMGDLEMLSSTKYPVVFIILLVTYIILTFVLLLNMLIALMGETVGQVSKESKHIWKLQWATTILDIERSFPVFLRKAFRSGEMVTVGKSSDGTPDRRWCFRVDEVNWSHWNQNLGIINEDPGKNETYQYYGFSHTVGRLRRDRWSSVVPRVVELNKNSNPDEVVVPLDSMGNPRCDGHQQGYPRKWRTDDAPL

| IC50 [nM] | Compound |
| --- | --- |
| 0.1 to 10 | Cc1cc(Cl)ncc1N1C[C@@]2(CCC[C@](C)(Cn3cnc4ccc(C#N)cc43)C2)OC1=O [Example 119, 1-(((5S,7S)-3-(6-chloro-4-methylpyridin-3-yl)-7-methyl-2-oxo-1-oxa-3-azaspiro[4.5]decan-7-yl)methyl)-1H-benzo[d]imidazole-6-carbonitrile] |
| 10 to 50 | Cn1ccc(-c2cc(N3C[C@@]4(CCC[C@](C)(Cn5cnc6ccc(C#N)cc65)C4)OC3=O)on2)n1 [Example 51, 1-(((5S,7S)-7-methyl-3-(3-(1-methyl-1H-pyrazol-3-yl)isoxazol-5-yl)-2-oxo-1-oxa-3-azaspiro[4.5]decan-7-yl)methyl)-1H-benzo[d]imidazole-6-carbonitrile] |
| 0.1 to 10 | C[C@]1(Cn2cnc3ccc(C#N)cc32)CCC[C@@]2(CN(c3cnc(C(F)(F)F)cn3)C(=O)O2)C1 [Example 115, 1-(((5S,7S)-7-methyl-2-oxo-3-(5-(trifluoromethyl)pyrazin-2-yl)-1-oxa-3-azaspiro[4.5]decan-7-yl)methyl)-1H-benzo[d]imidazole-6-carbonitrile] |
| 0.1 to 10 | Cc1cnc(N2C[C@@]3(CCC[C@](C)(Cn4cnc5ccc(C#N)cc54)C3)OC2=O)c(Cl)c1 [Example 128, 1-(((5S,7S)-3-(3-chloro-5-methylpyridin-2-yl)-7-methyl-2-oxo-1-oxa-3-azaspiro[4.5]decan-7-yl)methyl)-1H-benzo[d]imidazole-6-carbonitrile] |
| 50 to 500 | COc1ncccc1N1C[C@@]2(CCC[C@](C)(Cn3cnc4ccc(C#N)cc43)C2)OC1=O [Example 109, 1-[{(5S,7S)-7-methyl-3-[2-(methyloxy)-3-pyridinyl]-2-oxo-1-oxa-3-azaspiro[4.5]dec-7-yl}methyl]-1H-benzimidazole-6-carbonitrile] |
| 0.1 to 10 | CCOc1cnc(N2C[C@@]3(CCC[C@](C)(Cn4cnc5ccc(C#N)cc54)C3)OC2=O)cn1 [Example 14, 1-(((5S,7S)-3-(5-Ethoxypyrazin-2-yl)-7-methyl-2-oxo-1-oxa-3-azaspiro[4.5]decan-7-yl)methyl)-1H-benzo[d]imidazole-6-carbonitrile] |
| 0.1 to 10 | CCOc1ccc(CN2CC3(CCC[C@](C)(Cn4cnc5ccc(C#N)cc54)C3)OC2=O)nc1 (stereo in doubt) [Example 157, 1-(((5S,7S)-3-((5-ethoxypyridin-2-yl)methyl)-7-methyl-2-oxo-1-oxa-3-azaspiro[4.5]decan-7-yl)methyl)-1H-benzo[d]imidazole-6-carbonitrile] |
| 10 to 50 | C[C@]1(Cn2cnc3ccc(C#N)cc32)CCC[C@@]2(CN(c3cc(C(F)(F)F)no3)C(=O)O2)C1 [Example 37, 1-({(5S,7S)-7-methyl-2-oxo-3-[3-(trifluoromethyl)-5-isoxazolyl]-1-oxa-3-azaspiro[4.5]dec-7-yl}methyl)-1H-benzimidazole-6-carbonitrile] |

The next lines start with the compound.

| Compound | IC50 [nM] |
| --- | --- |
| CC(C)(C)c1noc(N2C[C@@]3(CCC[C@](C)(Cn4cnc5ccc(C#N)cc54)C3)OC2=O)c1Cl [Example 10, 1-({(5S,7S)-3-[4-Chloro-3-(1,1-dimethylethyl)-5-isoxazolyl]-7-methyl-2-oxo-1-oxa-3-azaspiro[4.5]dec-7-yl}methyl)-1H-benzimidazole-6-carbonitrile] | 0.1 to 10 |
| N#Cc1ccc(-n2cc(CN3C[C@@]4(CCC[C@H](Cn5cnc6ccc(C#N)cc65)C4)OC3=O)nn2)cc1 [Example 88, 1-[((5S,7S)-3-{[1-(4-cyanophenyl)-1H-1,2,3-triazol-4-yl]methyl}-2-oxo-1-oxa-3-azaspiro[4.5]dec-7-yl)methyl]-1H-benzimidazole-6-carbonitrile] | 50 to 500 |
| N#Cc1ccc2ncn(C[C@H]3CCC[C@]4(C3)CN(Cc3csc5ccccc35)C(=O)O4)c2c1 (stereo in doubt) [Example 62, 1-{[3-(1-benzothien-3-ylmethyl)-2-oxo-1-oxa-3-azaspiro[4.5]dec-7-yl]methyl}-1H-benzimidazole-6-carbonitrile] | 10 to 50 |
| Cc1cccc(-n2cc(CN3C[C@@]4(CCC[C@H](Cn5cnc6ccc(C#N)cc65)C4)OC3=O)nn2)c1 [Example 96, 1-[((5S,7S)-3-{[1-(3-methylphenyl)-1H-1,2,3-triazol-4-yl]methyl}-2-oxo-1-oxa-3-azaspiro[4.5]dec-7-yl)methyl]-1H-benzimidazole-6-carbonitrile] | 10 to 50 |
| C[C@]1(Cn2cnc3ccc(C#N)cc32)CCC[C@@]2(CN(c3ncccc3Cl)C(=O)O2)C1 [Example 137, 1-{[(5S,7S)-3-(3-chloro-2-pyridinyl)-7-methyl-2-oxo-1-oxa-3-azaspiro[4.5]dec-7-yl]methyl}-1H-benzimidazole-6-carbonitrile] | 10 to 50 |
| CC(C)c1ccc(N2C[C@@]3(CCC[C@H](Cn4cnc5ccc(C#N)cc54)C3)OC2=O)cn1 [Example 142, 1-({(5S,7S)-3-[6-(1-methylethyl)-3-pyridinyl]-2-oxo-1-oxa-3-azaspiro[4.5]dec-7-yl}methyl)-1H-benzimidazole-6-carbonitrile] | 10 to 50 |
| N#Cc1ccc2ncn(C[C@H]3CCC[C@]4(C3)CN(Cc3cn(-c5ccnc(C(F)(F)F)c5)nn3)C(=O)O4)c2c1 [Example 100, 1-{[(5S,7S)-2-oxo-3-({1-[2-(trifluoromethyl)-4-pyridinyl]-1H-1,2,3-triazol-4-yl}methyl)-1-oxa-3-azaspiro[4.5]dec-7-yl]methyl}-1H-benzimidazole-6-carbonitrile] | 0.1 to 10 |
| N#Cc1ccc2ncn(C[C@H]3CCC[C@]4(C3)CN(Cc3csc5ncccc35)C(=O)O4)c2c1 [Example 151, 1-{[(5S,7S)-2-oxo-3-(thieno[2,3-b]pyridin-3-ylmethyl)-1-oxa-3-azaspiro[4.5]dec-7-yl]methyl}-1H-benzimidazole-6-carbonitrile] | 50 to 500 |
| C[C@]1(Cn2cnc3ccc(C#N)cc32)CCC[C@@]2(CN(Cc3csc4ncccc34)C(=O)O2)C1 (relative stereo) [Example 152, 1-{[(trans)-7-methyl-2-oxo-3-(thieno[2,3-b]pyridin-3-ylmethyl)-1-oxa-3-azaspiro[4.5]dec-7-yl]methyl}-1H-benzimidazole-6-carbonitrile] | 0.1 to 10 |
| CC(C)(C#N)c1cc(N2C[C@@]3(CCC[C@](C)(Cn4cnc5ccc(C#N)cc54)C3)OC2=O)on1 [Example 2] | 0.1 to 10 |
| Cc1cc(N2CCOCC2)ncc1N1C[C@@]2(CCC[C@](C)(Cn3cnc4ccc(C#N)cc43)C2)OC1=O [Example 166, 1-(((5S,7S)-7-methyl-3-(4-methyl-6-morpholinopyridin-3-yl)-2-oxo-1-oxa-3-azaspiro[4.5]decan-7-yl)methyl)-1H-benzo[d]imidazole-6-carbonitrile] | 0.1 to 10 |
| COc1ccncc1N1C[C@@]2(CCC[C@](C)(Cn3cnc4ccc(C#N)cc43)C2)OC1=O [Example 149, 1-(((5S,7S)-3-(4-methoxypyridin-3-yl)-7-methyl-2-oxo-1-oxa-3-azaspiro[4.5]decan-7-yl)methyl)-1H-benzo[d]imidazole-6-carbonitrile] | 50 to 500 |
| CC(C)(C)c1ccc(N2C[C@@]3(CCC[C@](C)(Cn4cnc5ccc(C#N)cc54)C3)OC2=O)nn1 [Example 48, 1-(((5S,7S)-3-(6-(tert-butyl)pyridazin-3-yl)-7-methyl-2-oxo-1-oxa-3-azaspiro[4.5]decan-7-yl)methyl)-1H-benzo[d]imidazole-6-carbonitrile] | 0.1 to 10 |
| CC(C)OCc1noc(C(C)(C)CN2C[C@@]3(CCC[C@H](Cn4cnc5ccc(C#N)cc54)C3)OC2=O)n1 [Example 83, 1-({(5S,7S)-3-[2-methyl-2-(3-{[(1-methylethyl)oxy]methyl}-1,2,4-oxadiazol-5-yl)propyl]-2-oxo-1-oxa-3-azaspiro[4.5]dec-7-yl}methyl)-1H-benzimidazole-6-carbonitrile] | 0.1 to 10 |
| CC(C)(C#N)c1ccc(N2C[C@@]3(CCC[C@](C)(Cn4cnc5ccc(C#N)cc54)C3)OC2=O)cn1 [Example 133, 1-(((5S,7S)-3-(6-(2-cyanopropan-2-yl)pyridin-3-yl)-7-methyl-2-oxo-1-oxa-3-azaspiro[4.5]decan-7-yl)methyl]-1H-benzo[d]imidazole-6-carbonitrile] | 0.1 to 10 |
| COc1ccc(-c2csc(CN3C[C@@]4(CCC[C@H](Cn5cnc6ccc(C#N)cc65)C4)OC3=O)n2)cc1C [Example 70, 1-{[(5S,7S)-3-({4-[3-methyl-4-(methyloxy)phenyl]-1,3-thiazol-2-yl}methyl)-2-oxo-1-oxa-3-azaspiro[4.5]dec-7-yl]methyl}-1H-benzimidazole-6-carbonitrile] | 0.1 to 10 |
| CC(C)(C)OC(=O)OCC(C)(C)c1cc(N2C[C@@]3(CCC[C@](C)(Cn4cnc5ccc(C#N)cc54)C3)OC2=O)on1 [Example 20, Tert-butyl (2-(5-((5S,7S)-7-((6-cyano-1H-benzo[d]imidazol-1-yl)methyl)-7-methyl-2-oxo-1-oxa-3-azaspiro[4.5]decan-3-yl)isoxazol-3-yl)-2-methylpropyl) carbonate] | 0.1 to 10 |
